The compounds below were run against T1, Capsid scaffolding protein (Human cytomegalovirus (strain AD169) (HHV-5) (Human herpesvirus 5), UniProt P16753) (assay: Inhibitory activity against Human Cytomegalovirus (hCMV) protease).
T1 sequence (P16753 whole entry): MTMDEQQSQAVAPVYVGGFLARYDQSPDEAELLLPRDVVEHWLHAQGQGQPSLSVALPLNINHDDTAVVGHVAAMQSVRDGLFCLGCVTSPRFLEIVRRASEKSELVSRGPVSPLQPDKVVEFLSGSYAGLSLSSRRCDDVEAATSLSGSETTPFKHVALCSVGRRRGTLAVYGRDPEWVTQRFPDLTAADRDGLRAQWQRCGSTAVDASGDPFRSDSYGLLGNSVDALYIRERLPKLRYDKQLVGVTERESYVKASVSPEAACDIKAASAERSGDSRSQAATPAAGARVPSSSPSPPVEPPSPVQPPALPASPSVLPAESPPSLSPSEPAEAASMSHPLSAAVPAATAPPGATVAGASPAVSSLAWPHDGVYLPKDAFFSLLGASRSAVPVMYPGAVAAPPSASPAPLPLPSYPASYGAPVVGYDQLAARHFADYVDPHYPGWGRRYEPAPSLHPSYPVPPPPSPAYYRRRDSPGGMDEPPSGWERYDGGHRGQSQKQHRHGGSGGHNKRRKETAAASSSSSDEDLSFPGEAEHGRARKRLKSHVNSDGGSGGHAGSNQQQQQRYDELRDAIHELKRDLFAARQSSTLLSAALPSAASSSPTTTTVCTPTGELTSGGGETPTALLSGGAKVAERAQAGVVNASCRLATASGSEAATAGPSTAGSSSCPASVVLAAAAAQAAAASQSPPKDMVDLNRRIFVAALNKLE
Set-up: species or system Human betaherpesvirus 5

SMILES	IC50
Cc1csc2nc(Cc3ccc(C(=O)c4cccc(CO)c4)cc3)oc(=O)c12	1100 nM
CC(=O)c1cccc(NO)c1	11000 nM
Cc1csc2nc(Cc3ccc(C(=O)c4ccccc4)cc3)[nH]c(=O)c12	> 33000 nM
Cc1csc2nc(Cc3cccc(NC(=O)c4ccc(NN)cc4)c3)oc(=O)c12	2400 nM
Cc1csc2nc(Cc3ccc(C(=O)c4cccc(N)c4)cc3)oc(=O)c12	1000 nM
Cc1csc2nc(Cc3ccc(C(=O)c4cccc(/N=[N+](\[O-])c5cccc(C(=O)c6ccc(Cc7nc8scc(C)c8c(=O)o7)cc6)c5)c4)cc3)oc(=O)c12	> 33000 nM
CC(=O)N(O)c1cccc(C(=O)c2ccc(Cc3nc4scc(C)c4c(=O)o3)cc2)c1	1100 nM
Cc1csc2nc(Cc3ccc(C(=O)c4cccc([N+](=O)[O-])c4)cc3)oc(=O)c12	3500 nM
Cc1csc2nc(Cc3cccc(NC(=O)c4ccc(NO)cc4)c3)oc(=O)c12	61 nM
Cc1csc2nc(Cc3cccc(NC(=O)c4cccc(NN)c4)c3)oc(=O)c12	3800 nM
Cc1csc2nc(Cc3ccc(C(=O)c4cccc(N=O)c4)cc3)oc(=O)c12	55 nM
Cc1csc2nc(Cc3ccc(C(=O)c4ccccc4)cc3)oc(=O)c12	800 nM
CC(=O)ON(C(C)=O)c1cccc(C(=O)c2ccc(Cc3nc4scc(C)c4c(=O)o3)cc2)c1	1400 nM
NO [HYDROXYLAMMONIUM CHLORIDE]	> 33000 nM
Cc1csc2nc(Cc3ccc(C(=O)c4cccc(NO)c4)cc3)oc(=O)c12	19 nM
Cc1ccc(C(=O)c2cccc(NO)c2)cc1	3700 nM
Cc1csc2nc(Cc3cccc(NC(=O)c4cccc(NO)c4)c3)oc(=O)c12	45 nM
Cc1csc2nc(Cc3ccc(C(=O)c4ccc(NO)cc4)cc3)oc(=O)c12	14 nM
Cc1csc2nc(Cc3cccc(NC(=O)c4ccccc4)c3)oc(=O)c12	1500 nM
CONc1cccc(C(=O)Nc2cccc(Cc3nc4scc(C)c4c(=O)o3)c2)c1	2200 nM
Cc1csc2nc(Cc3ccc(C(=O)c4cccc(NO)c4)cc3)[nH]c(=O)c12	2000 nM
ONc1ccccc1	9000 nM
Cc1csc2nc(Cc3ccc(C(=O)c4ccc(CO)cc4)cc3)oc(=O)c12	940 nM

— ChEMBL document CHEMBL1131870, “The inhibition of human cytomegalovirus (hCMV) protease by hydroxylamine derivatives” (Bioorg Med Chem Lett, 1999)
